Test results: PubChem BioAssay (NCI)
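Tested at 5 concentrations; 48 h exposure; 96-well plates; endpoints linearly interpolated, else capped at highest concentration. Definition used: TGI = concentration required for complete inhibition of growth.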

Assays:
Assay in all cases: NCI anticancer screen, dose series, 48 h
HCT-116 colon = test system: HCT-116 colon
UO-31 renal = test system: UO-31 renal
NCI-H23 lung = test system: NCI-H23 lung
A498 renal = test system: A498 renal
KM20L2 colon = test system: KM20L2 colon
IGROV1 ovarian = test system: IGROV1 ovarian
DMS 114 small cell lung = test system: DMS 114 small cell lung
LOX IMVI melanoma = test system: LOX IMVI melanoma
A549 NSCLC = test system: A549 NSCLC
HCC-2998 colon = test system: HCC-2998 colon
OVCAR-5 ovarian = test system: OVCAR-5 ovarian
SF-295 CNS = test system: SF-295 CNS
ACHN renal = test system: ACHN renal
SK-OV-3 ovarian = test system: SK-OV-3 ovarian
COLO 205 colon = test system: COLO 205 colon
NCI-H460 lung = test system: NCI-H460 lung
SF-539 CNS = test system: SF-539 CNS
OVCAR-8 ovarian = test system: OVCAR-8 ovarian
SNB-75 CNS = test system: SNB-75 CNS
MOLT-4 leukemia = test system: MOLT-4 leukemia
SN12C renal = test system: SN12C renal
TK-10 renal = test system: TK-10 renal
HT29 colon = test system: HT29 colon
HOP-18 NSCLC = test system: HOP-18 NSCLC
CAKI-1 renal = test system: CAKI-1 renal
SF-268 CNS = test system: SF-268 CNS
XF 498 CNS = test system: XF 498 CNS
SR leukemia = test system: SR leukemia
SNB-78 CNS = test system: SNB-78 CNS
U251 CNS = test system: U251 CNS
SK-MEL-28 melanoma = test system: SK-MEL-28 melanoma
HL-60(TB) leukemia = test system: HL-60(TB) leukemia
SW-620 colon = test system: SW-620 colon
KM12 colon = test system: KM12 colon
DLD-1 colon = test system: DLD-1 colon
SNB-19 CNS = test system: SNB-19 CNS
SK-MEL-2 melanoma = test system: SK-MEL-2 melanoma
CCRF-CEM leukemia = test system: CCRF-CEM leukemia
786-0 renal = test system: 786-0 renal
K-562 leukemia = test system: K-562 leukemia
LXFL 529 NSCLC = test system: LXFL 529 NSCLC
HCT-15 colon = test system: HCT-15 colon
UACC-257 melanoma = test system: UACC-257 melanoma
HOP-92 NSCLC = test system: HOP-92 NSCLC
UACC-62 melanoma = test system: UACC-62 melanoma
MALME-3M melanoma = test system: MALME-3M melanoma
NCI-H226 lung = test system: NCI-H226 lung
RPMI-8226 leukemia = test system: RPMI-8226 leukemia
DMS 273 small cell lung = test system: DMS 273 small cell lung
SK-MEL-5 melanoma = test system: SK-MEL-5 melanoma
RXF 393 renal = test system: RXF 393 renal
HOP-62 NSCLC = test system: HOP-62 NSCLC
M14 melanoma = test system: M14 melanoma
OVCAR-3 ovarian = test system: OVCAR-3 ovarian
NCI-H522 lung = test system: NCI-H522 lung
M19-MEL melanoma = test system: M19-MEL melanoma
EKVX NSCLC = test system: EKVX NSCLC
OVCAR-4 ovarian = test system: OVCAR-4 ovarian

## CC(=O)N1c2ccccc2C2=CC3C4C(=O)N(c5ccccc5)C(=O)C4C21C1C(=O)N(c2ccccc2)C(=O)C31 (configuration not stated)
HCT-116 colon
  TGI: > 100 µM
UO-31 renal
  TGI: > 100 µM
NCI-H23 lung
  TGI: > 100 µM
A498 renal
  TGI: > 100 µM
KM20L2 colon
  TGI: 70 µM
IGROV1 ovarian
  TGI: > 100 µM
DMS 114 small cell lung
  TGI: 44.1 µM
LOX IMVI melanoma
  TGI: > 100 µM
A549 NSCLC
  TGI: > 100 µM
HCC-2998 colon
  TGI: > 100 µM
OVCAR-5 ovarian
  TGI: > 100 µM
SF-295 CNS
  TGI: 39.1 µM
ACHN renal
  TGI: > 100 µM
SK-OV-3 ovarian
  TGI: > 100 µM
COLO 205 colon
  TGI: > 100 µM
NCI-H460 lung
  TGI: > 100 µM
SF-539 CNS
  TGI: 6.66 µM
OVCAR-8 ovarian
  TGI: > 100 µM
SNB-75 CNS
  TGI: > 100 µM
MOLT-4 leukemia
  TGI: > 100 µM
SN12C renal
  TGI: > 100 µM
TK-10 renal
  TGI: > 100 µM
HT29 colon
  TGI: > 100 µM
HOP-18 NSCLC
  TGI: > 100 µM
CAKI-1 renal
  TGI: > 100 µM
SF-268 CNS
  TGI: > 100 µM
XF 498 CNS
  TGI: 76.8 µM
SR leukemia
  TGI: > 100 µM
SNB-78 CNS
  TGI: > 100 µM
U251 CNS
  TGI: > 100 µM
SK-MEL-28 melanoma
  TGI: > 100 µM
HL-60(TB) leukemia
  TGI: 58.8 µM
SW-620 colon
  TGI: > 100 µM
KM12 colon
  TGI: > 100 µM
DLD-1 colon
  TGI: > 100 µM
SNB-19 CNS
  TGI: > 100 µM
SK-MEL-2 melanoma
  TGI: 56.2 µM
CCRF-CEM leukemia
  TGI: > 100 µM
786-0 renal
  TGI: > 100 µM
K-562 leukemia
  TGI: > 100 µM
LXFL 529 NSCLC
  TGI: > 100 µM
HCT-15 colon
  TGI: > 100 µM
UACC-257 melanoma
  TGI: > 100 µM
HOP-92 NSCLC
  TGI: > 100 µM
UACC-62 melanoma
  TGI: > 100 µM
MALME-3M melanoma
  TGI: > 100 µM

## CCCCCCCC(=O)NCC(O)CNC(=O)CCCCCCC
HCT-116 colon
  TGI: > 100 µM
UO-31 renal
  TGI: > 100 µM
NCI-H23 lung
  TGI: > 100 µM
A498 renal
  TGI: > 100 µM
KM20L2 colon
  TGI: > 100 µM
IGROV1 ovarian
  TGI: > 100 µM
DMS 114 small cell lung
  TGI: > 100 µM
LOX IMVI melanoma
  TGI: > 100 µM
A549 NSCLC
  TGI: > 100 µM
HCC-2998 colon
  TGI: > 100 µM
NCI-H226 lung
  TGI: > 100 µM
OVCAR-5 ovarian
  TGI: > 100 µM
SF-295 CNS
  TGI: > 100 µM
SK-OV-3 ovarian
  TGI: > 100 µM
RPMI-8226 leukemia
  TGI: > 100 µM
DMS 273 small cell lung
  TGI: > 100 µM
COLO 205 colon
  TGI: > 100 µM
NCI-H460 lung
  TGI: > 100 µM
SF-539 CNS
  TGI: > 100 µM
OVCAR-8 ovarian
  TGI: > 100 µM
SNB-75 CNS
  TGI: > 100 µM
MOLT-4 leukemia
  TGI: > 100 µM
SK-MEL-5 melanoma
  TGI: > 100 µM
SN12C renal
  TGI: > 100 µM
TK-10 renal
  TGI: > 100 µM
HT29 colon
  TGI: > 100 µM
HOP-18 NSCLC
  TGI: > 100 µM
CAKI-1 renal
  TGI: > 100 µM
SF-268 CNS
  TGI: > 100 µM
RXF 393 renal
  TGI: > 100 µM
XF 498 CNS
  TGI: > 100 µM
HOP-62 NSCLC
  TGI: > 100 µM
M14 melanoma
  TGI: > 100 µM
SR leukemia
  TGI: > 100 µM
SNB-78 CNS
  TGI: > 100 µM
U251 CNS
  TGI: > 100 µM
HL-60(TB) leukemia
  TGI: > 100 µM
SW-620 colon
  TGI: > 100 µM
KM12 colon
  TGI: > 100 µM
DLD-1 colon
  TGI: > 100 µM
OVCAR-3 ovarian
  TGI: > 100 µM
SNB-19 CNS
  TGI: > 100 µM
NCI-H522 lung
  TGI: > 100 µM
CCRF-CEM leukemia
  TGI: > 100 µM
786-0 renal
  TGI: > 100 µM
K-562 leukemia
  TGI: > 100 µM
LXFL 529 NSCLC
  TGI: > 100 µM
M19-MEL melanoma
  TGI: > 100 µM
HCT-15 colon
  TGI: > 100 µM
UACC-257 melanoma
  TGI: > 100 µM
EKVX NSCLC
  TGI: > 100 µM
HOP-92 NSCLC
  TGI: > 100 µM
UACC-62 melanoma
  TGI: > 100 µM
MALME-3M melanoma
  TGI: > 100 µM
OVCAR-4 ovarian
  TGI: > 100 µM

## CCOc1ccc(NC(=O)C(=O)NO)cc1
HCT-116 colon
  TGI: > 100 µM
UO-31 renal
  TGI: > 100 µM
NCI-H23 lung
  TGI: > 100 µM
A498 renal
  TGI: > 100 µM
KM20L2 colon
  TGI: > 100 µM
IGROV1 ovarian
  TGI: > 100 µM
DMS 114 small cell lung
  TGI: > 100 µM
LOX IMVI melanoma
  TGI: > 100 µM
A549 NSCLC
  TGI: > 100 µM
HCC-2998 colon
  TGI: > 100 µM
NCI-H226 lung
  TGI: > 100 µM
OVCAR-5 ovarian
  TGI: > 100 µM
SF-295 CNS
  TGI: > 100 µM
ACHN renal
  TGI: > 100 µM
SK-OV-3 ovarian
  TGI: > 100 µM
RPMI-8226 leukemia
  TGI: > 100 µM
DMS 273 small cell lung
  TGI: > 100 µM
COLO 205 colon
  TGI: > 100 µM
NCI-H460 lung
  TGI: > 100 µM
SF-539 CNS
  TGI: > 100 µM
OVCAR-8 ovarian
  TGI: > 100 µM
SNB-75 CNS
  TGI: > 100 µM
MOLT-4 leukemia
  TGI: > 100 µM
SK-MEL-5 melanoma
  TGI: > 100 µM
SN12C renal
  TGI: > 100 µM
TK-10 renal
  TGI: > 100 µM
HT29 colon
  TGI: > 100 µM
HOP-18 NSCLC
  TGI: > 100 µM
CAKI-1 renal
  TGI: > 100 µM
SF-268 CNS
  TGI: > 100 µM
RXF 393 renal
  TGI: > 100 µM
HOP-62 NSCLC
  TGI: > 100 µM
M14 melanoma
  TGI: > 100 µM
SR leukemia
  TGI: > 100 µM
SNB-78 CNS
  TGI: > 100 µM
U251 CNS
  TGI: > 100 µM
SK-MEL-28 melanoma
  TGI: > 100 µM
HL-60(TB) leukemia
  TGI: > 100 µM
SW-620 colon
  TGI: > 100 µM
KM12 colon
  TGI: > 100 µM
DLD-1 colon
  TGI: > 100 µM
OVCAR-3 ovarian
  TGI: > 100 µM
SNB-19 CNS
  TGI: > 100 µM
SK-MEL-2 melanoma
  TGI: > 100 µM
NCI-H522 lung
  TGI: > 100 µM
CCRF-CEM leukemia
  TGI: > 100 µM
786-0 renal
  TGI: > 100 µM
K-562 leukemia
  TGI: > 100 µM
LXFL 529 NSCLC
  TGI: > 100 µM
M19-MEL melanoma
  TGI: > 100 µM
HCT-15 colon
  TGI: > 100 µM
UACC-257 melanoma
  TGI: > 100 µM
EKVX NSCLC
  TGI: > 100 µM
HOP-92 NSCLC
  TGI: > 100 µM
UACC-62 melanoma
  TGI: > 100 µM
MALME-3M melanoma
  TGI: > 100 µM
OVCAR-4 ovarian
  TGI: > 100 µM

## NC(=O)C#CC#CC#CCO
HCT-116 colon
  TGI: 2.59 µM
UO-31 renal
  TGI: 3.68 µM
NCI-H23 lung
  TGI: 3.93 µM
A498 renal
  TGI: 14.9 µM
KM20L2 colon
  TGI: 27.3 µM
IGROV1 ovarian
  TGI: 7.4 µM
DMS 114 small cell lung
  TGI: 3.6 µM
LOX IMVI melanoma
  TGI: 3.83 µM
A549 NSCLC
  TGI: 16.5 µM
HCC-2998 colon
  TGI: 3.1 µM
NCI-H226 lung
  TGI: 27.5 µM
OVCAR-5 ovarian
  TGI: 33.1 µM
SF-295 CNS
  TGI: 11.6 µM
ACHN renal
  TGI: 2.61 µM
SK-OV-3 ovarian
  TGI: 25.5 µM
DMS 273 small cell lung
  TGI: 4.1 µM
COLO 205 colon
  TGI: 2.65 µM
NCI-H460 lung
  TGI: 19.3 µM
OVCAR-8 ovarian
  TGI: 3.42 µM
MOLT-4 leukemia
  TGI: 2.67 µM
SK-MEL-5 melanoma
  TGI: 3.78 µM
SN12C renal
  TGI: 3.76 µM
TK-10 renal
  TGI: 3.01 µM
HT29 colon
  TGI: 4.04 µM
HOP-18 NSCLC
  TGI: 3.28 µM
RXF 393 renal
  TGI: 3.66 µM
HOP-62 NSCLC
  TGI: 23.1 µM
M14 melanoma
  TGI: 3.63 µM
SR leukemia
  TGI: 4.54 µM
SNB-78 CNS
  TGI: 7.03 µM
U251 CNS
  TGI: 3.72 µM
SK-MEL-28 melanoma
  TGI: 3.58 µM
HL-60(TB) leukemia
  TGI: 3.01 µM
SW-620 colon
  TGI: 3.33 µM
KM12 colon
  TGI: 12.2 µM
OVCAR-3 ovarian
  TGI: 3.49 µM
SNB-19 CNS
  TGI: 29.6 µM
SK-MEL-2 melanoma
  TGI: 4.9 µM
NCI-H522 lung
  TGI: 0.301 µM
786-0 renal
  TGI: 2.93 µM
K-562 leukemia
  TGI: 4.65 µM
LXFL 529 NSCLC
  TGI: 2.35 µM
M19-MEL melanoma
  TGI: 3.26 µM
HCT-15 colon
  TGI: 3.5 µM
UACC-257 melanoma
  TGI: 5.87 µM
HOP-92 NSCLC
  TGI: 3.83 µM
UACC-62 melanoma
  TGI: 4.32 µM
MALME-3M melanoma
  TGI: 3.72 µM
OVCAR-4 ovarian
  TGI: 3.53 µM
